Laboratory results as given in US20240139226A1, “A COMPOSITION FOR PROMOTING GLP-1 SECRETION” (priority 2021, published 2024).
Where two headings read alike, the source gives them in different places.

Test system: NCI-H716 cells
Test: GLP-1 secretion-promoting effect using NCI-H716 cells (GLP-1 in supernatant by ELISA)
Assay type: cell-based, Human
Conditions: for GLP-1 secretion compared to Control: Experiment 1-3, text on Table 1, mGN 2.5 mM, flavor component 0.25 mM; for activity at 125 µM: test sample alone at 0.125 mM; for activity at 25 µM: test sample alone at 0.025 mM; for activity at 2500 µM: test sample alone at 2.5 mM; for activity at 25000 µM: test sample alone at 25 mM
Method: GLP-1 secretion-promoting effect was evaluated by the following experiment using NCI-H716 cells (Human intestinal tract-derived cell line; purchased from ATCC).
NCI-H716 cells were cultured at 37° C. with 5% CO2 using RPMI1640 (supplemented with 10% Fetal Bovine Serum, manufactured by Sigma) as a cell culture medium for passage. After culturing, cells were suspended in DMEM medium (supplemented with 10% Fetal Bovine Serum; containing 4.5 mg/mL of glucose; manufactured by Shimadzu Diagnostics Corporation, Tokyo, Japan) and added to a Matrigel (120 μL/well; manufactured by Corning Incorporated, NY, USA)-coated 48-well plate at a cell density of 1.2×10^5 cells/well. After incubation for 2 days, the cells were washed twice with 20 mM HEPES-containing HBSS (Hank's Balanced Salt Solution) buffer. After removal of the washing buffer, 20 mM HEPES-HBSS (supplemented with 0.01% BSA) containing the above-described test samples was added and the cells were incubated for 2 hours. After incubation, the supernatant was collected into a microcentrifuge tube containing diprotin-A (DPP4 inhibitor, manufactured by Abcam plc., Cambridge, UK) and protease inhibitors (cOmplete™, EDTA-free Protease Inhibitor Cocktail, Roche, Basel, Switzerland; Catalogue No. 1187358001). After centrifugation, the supernatant was stored at −80° C. until it was used for the GLP-1 measurement. The amount of GLP-1 in the medium was measured by ELISA method using GLP-1 Active Form Assay Kit (manufactured by Immuno-Biological Laboratories Co, Ltd., Gunma, Japan). […] As a positive control for measuring cytotoxicity, the cells added with 0.1% Triton X-100/PBS (−) (Phosphate Buffered Saline) were used. The LDH activity in the cell culture supernatant of the positive control was set as 100% and the ratio to the positive control (LDH activity in the cell culture supernatant of sample/LDH activity in the positive control) was calculated as the cytotoxicity rate. Herein, it was judged that a sample had no cytotoxicity when the cytotoxicity rate was within ±2% compared to that of “control (cells cultured with 20 mM HEPES-HBSS without a test sample, instead of 20 mM HEPES-HBSS containing a test sample; shown as “No Addition” in Table 1)”.
The amount of GLP-1 secretion was determined as a relative value to the average value of the GLP-1 secretion amount obtained for a control (cells cultured with 20 mM HEPES-HBSS without a test sample instead of 20 mM HEPES-HBSS containing a test sample; shown as “No Addition” in Table 1). In Table 1, the GLP-1 secretion amounts when mGN and flavor components were used separately and the GLP-1 secretion amounts when mGN and flavor components were used in combination were shown. […] The synergistic effect of mGN and flavor components in promoting GLP-1 secretion was judged based on the following criteria.
Synergistic Effect: Theoretical Value<(is less than) Measured Value • Theoretical Value=([…])×100+(B/D−1)×100 • Measured Value=(C/D-1)×100
The theoretical value and the measure value were compared based on the above formula. When the measured value was higher than the theoretical value, it was judged that there was a synergistic effect, which was indicated as “O” in the table.
The presence or absence of the synergistic effect by the combination of mGN and thymol was judged based on the formula used in Experiment 1-3. When the measured value was higher than the theoretical value, it was judged that there was a synergistic effect and it was indicated as “O” in the table. Furthermore, a Tukey-Kramer test was performed. When there was a significant difference (Risk Rate p<0.05) between the GLP-1 secretion amount of the combination of mGN and thymol (C) and each of the GLP-1 secretion amount of Control (D), mGN alone (A), and thymol alone (B), it was indicated “⊚” in the below table.

[1] = Homo sapiens, NCI-H716, 2 h, Table 1, Experiment 1-3, test sample alone at 0.25 mM, Control (No Addition) = 100, 2 hours, read-out: GLP-1 secretion amount, Independent Use (relative value to Control)
[2] = Experiment 1-3, flavor component alone 0.25 mM
[3] = Table 1, Experiment 1-3, test sample alone at 0.25 mM, Control (No Addition) = 100, 2 hours
[4] = Homo sapiens, NCI-H716, 2 h, Table 4, Experiment 4, Control = 100, N=3, read-out: GLP-1 secretion amount, Independent Use (relative value to Control)
[5] = Homo sapiens, NCI-H716, 2 h, Table 4, Experiment 4, test sample alone at 0.25 mM, Control = 100, N=3, read-out: GLP-1 secretion amount, Independent Use (relative value to Control)
[6] = Homo sapiens, NCI-H716, 2 h, Table 3, Experiment 3, Control = 100, N=3, read-out: GLP-1 secretion amount, Independent Use (relative value to Control)
[7] = Homo sapiens, NCI-H716, 2 h, Table 2, Experiment 2, Control = 100, N=3, read-out: GLP-1 secretion amount, Independent Use (relative value to Control)
[8] = Homo sapiens, NCI-H716, 2 h, Table 6, Experiment 6, Control = 100, N=3, read-out: GLP-1 secretion amount, Independent Use (relative value to Control)

SMILES: C=C1C2CCC(C2)C1(C)C (centres unmarked) [Camphene, camphene]
- activity at 250 µM [1]: 135%

SMILES: CC(C)=CCCC(C)=CC=O [Citral, citral, reference compound]
- GLP-1 secretion compared to Control: approximately 2.4 times
- activity at 250 µM [1]: 246%

SMILES: CC(C)=CCCC(C)CC=O (centres unmarked) [Citronellal, citronellal, reference compound]
- activity at 250 µM [1]: 113%

SMILES: CNc1ccccc1C(=O)OC [Methyl N-methyl anthranilate, methyl N-methyl anthranilate]
- GLP-1 secretion promoting effect when used alone (in words) [2]: no GLP-1 secretion promoting effect
- GLP-1 secretion amount, Independent Use (relative value to Control) [3]: 73

SMILES: COC(=O)c1ccccc1N [Methyl anthranilate, methyl anthranilate]
- GLP-1 secretion promoting effect when used alone (in words) [2]: no GLP-1 secretion promoting effect
- activity at 250 µM (Homo sapiens, NCI-H716, 2 h, read-out: GLP-1 secretion amount, Independent Use (relative value to Control)): 73%

SMILES: C=C(C)[C@@H]1CCC2=CC(=O)C[C@@H](C)[C@]2(C)C1 [Nootkatone, nootkatone]
- GLP-1 secretion when used alone (in words) (Experiment 4, alone, concentrations of Table 4): promoted in a nootkatone concentration-dependent manner
- activity at 250 µM [1]: 457%
- activity at 12.5 µM (Homo sapiens, NCI-H716, 2 h, Table 4, Experiment 4, test sample alone at 0.0125 mM, Control = 100, N=3, read-out: GLP-1 secretion amount, Independent Use (relative value to Control)): 70%
- activity at 37.5 µM (Homo sapiens, NCI-H716, 2 h, Table 4, Experiment 4, test sample alone at 0.0375 mM, Control = 100, N=3, read-out: GLP-1 secretion amount, Independent Use (relative value to Control)): 111%
- activity at 125 µM [4]: 350%
- activity at 250 µM [5]: 464%

SMILES: C=C1CCC2(C(C)C)CC12 (centres unmarked) [Sabinene, sabinene]
- GLP-1 secretion promoting effect when used alone (in words) [2]: no GLP-1 secretion promoting effect
- activity at 250 µM [1]: 101%

SMILES: Cc1ccc(C(C)C)c(O)c1 [Thymol, thymol]
- GLP-1 secretion promoting effect when used alone (in words) [2]: no GLP-1 secretion promoting effect
- GLP-1 secretion-promoting effect when used alone (in words) (Experiment 2, alone at a concentration of 0.25 mM): no GLP-1 secretion-promoting effect was observed
- GLP-1 secretion promoting effect when used alone (in words) (Experiment 3, alone, 0.0067 mM to 0.125 mM): no GLP-1 secretion promoting effect
- activity at 250 µM [1]: 82%
- activity at 6.7 µM (Homo sapiens, NCI-H716, 2 h, Table 3, Experiment 3, test sample alone at 0.0067 mM, Control = 100, N=3, read-out: GLP-1 secretion amount, Independent Use (relative value to Control)): 34%
- activity at 25 µM [6]: 61%
- activity at 125 µM [6]: 65%

SMILES: C=C(C)[C@@H]1CCC2=CCC[C@@H](C)[C@]2(C)C1 [Valencene, valencene]
- GLP-1 secretion amount, Independent Use (relative value to Control) [3]: 121

SMILES: CC1O[C@@H](OC2[C@H](Oc3cc(O)c4c(c3)OC(c3ccc(O)cc3)CC4=O)OC(CO)[C@@H](O)[C@H]2O[C@H]2OC(CO)[C@@H](O)[C@@H](O)C2O)C(O)[C@@H](O)[C@H]1O (stereo partly drawn) [mGN, 3″-α-monoglucosyl naringin]
- GLP-1 secretion compared to Control: approximately 1.6 times
- GLP-1 secretion when used alone (in words) (Experiment 2, alone, 0.025 mM to 150 mM): promoted to some extent in a mGN concentration-dependent manner
- activity at 2500 µM (Homo sapiens, NCI-H716, 2 h, Table 1, Experiment 1-3, Control (No Addition) = 100, 2 hours, read-out: GLP-1 secretion amount, Independent Use (relative value to Control)): 164%
- activity at 25 µM [7]: 45%
- activity at 250 µM (Homo sapiens, NCI-H716, 2 h, Table 2, Experiment 2, test sample alone at 0.25 mM, Control = 100, N=3, read-out: GLP-1 secretion amount, Independent Use (relative value to Control)): 63%
- activity at 2500 µM [7]: 121%
- activity at 25000 µM [7]: 427%
- activity at 25000 µM [6]: 521%
- activity at 25 µM [4]: 39%
- activity at 250 µM [5]: 63%
- activity at 2500 µM [4]: 85%
- activity at 12500 µM (Homo sapiens, NCI-H716, 2 h, Table 4, Experiment 4, test sample alone at 12.5 mM, Control = 100, N=3, read-out: GLP-1 secretion amount, Independent Use (relative value to Control)): 502%
- activity at 25 µM (Homo sapiens, NCI-H716, 2 h, Table 5, Experiment 5, Control = 100, N=3, read-out: GLP-1 secretion amount, Independent Use (relative value to Control)): 39%
- activity at 25 µM [8]: 53%
- activity at 25000 µM [8]: 457%

SMILES: CC1=CCC2CC1C2(C)C (stereo not drawn) [α-Pinene, α-pinene]
- activity at 250 µM [1]: 136%

SMILES: C=C1CC/C=C(\C)CC[C@@H]2[C@@H]1CC2(C)C [β-Caryophyllene, β-caryophyllene]
- GLP-1 secretion amount, Independent Use (relative value to Control) [3]: 111

SMILES: CC(=O)/C=C/C1=C(C)CCCC1(C)C [β-Ionone, β-ionone]
- GLP-1 secretion amount, Independent Use (relative value to Control) [3]: 157

SMILES: C=C1CCC2CC1C2(C)C (stereo not drawn) [β-Pinene, β-pinene]
- GLP-1 secretion promoting effect when used alone (in words) [2]: no GLP-1 secretion promoting effect
- activity at 250 µM [1]: 100%
